Holding throughout (assay type): biochemical
One assay deals with T1, KRAS G12D (Homo sapiens, UniProt P01116, G12D).
T1 construct: Recombinant human RAS protein (2 nM)
Put plainly: HTRF nucleotide exchange assay (NEA), KRAS G12D. Particulars: recombinant human KRAS G12D aa1-188, 2 nM; lowest class = % inhibition at 10 μM. The protocol:
(§1) The capacity of compounds to bind KRAS G12D, other KRAS mutants and wildtype RAS isoforms was quantified using a HTRF nucleotide exchange assay. Recombinant human RAS protein (2 nM; aa1-188 KRAS WT, HRAS WT, NRAS WT, or KRAS containing the containing the G12D, G13D or Q61H amino acid substitutions, or 4 nM KRAS; aa1-188 containing the G12V, G12C, G12A or G12S amino acid substitution, an N-terminal 6×His-tag and leader sequence), and 2 nM Europium-labeled anti-6×His antibody were mixed in assay buffer (10 mM HEPES pH7.3, 150 mM NaCl, 5 mM MgCl2, 0.05% BSA, 0.0025% NP-40 and 100 mM KF) with various concentrations of compound in a 384-well plate and a volume of 5 uL. After a 60-minute incubation at room temperature, 5 ul of 200 nM EDA-GTP-DY647P1 (diluted in assay buffer) was added to the plate. Following 30-minute incubation at room temperature, time-resolved fluorescence was measured on a PerkinElmer Envision plate reader. DMSO (0.3%) and unlabeled […] (1 μM) or equivalent tool compound were used to generate the Max and Min assay signals, respectively. Data was analysed using a four-parameter logistic model to calculate IC50 values, with at least two independent replicates were performed for each compound.

The target in a further assay is T2, KRAS WT (Homo sapiens, UniProt P01116).
T2 construct: Recombinant human RAS protein (2 nM); aa1-188 KRAS WT
Put plainly: HTRF nucleotide exchange assay (NEA), KRAS WT. As to the method:
as §1

In a further assay the target is T3, KRAS G12C (Homo sapiens, UniProt P01116, G12C).
T3 construct: 4 nM KRAS; aa1-188 containing the G12V, G12C, G12A or G12S amino acid substitution
Put plainly: HTRF nucleotide exchange assay (NEA), KRAS G12C. As to the method:
as §1

Another assay has as its target T4, KRAS G12V (Homo sapiens, UniProt P01116, G12V).
T4 construct: 4 nM KRAS; aa1-188 containing the G12V, G12C, G12A or G12S amino acid substitution
The assay is described as follows: HTRF nucleotide exchange assay (NEA), KRAS G12V. As to the method: as §1

For another assay, the target named is T5, KRAS G12S (Homo sapiens, UniProt P01116, G12S).
T5 construct: 4 nM KRAS; aa1-188 containing the G12V, G12C, G12A or G12S amino acid substitution
Put plainly: HTRF nucleotide exchange assay (NEA), KRAS G12S. The protocol:
as §1

This note sets out measurements from patent US20240279241A1, “PYRIDO[4,3-D]PYRIMIDINE COMPOUNDS CAPABLE OF INHIBITING KRAS MUTANT PROTEINS” (Redx Pharma PLC, priority 2021, published 2024).

Where two headings read alike, the source gives them in different places.

T3 sequence (P01116 1-188 isoform P01116-2 G12C): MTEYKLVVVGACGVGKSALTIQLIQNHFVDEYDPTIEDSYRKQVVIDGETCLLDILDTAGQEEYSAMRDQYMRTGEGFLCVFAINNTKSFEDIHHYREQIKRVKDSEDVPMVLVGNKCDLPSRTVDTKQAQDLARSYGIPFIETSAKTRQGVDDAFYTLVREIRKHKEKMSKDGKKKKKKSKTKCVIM
T2 sequence (P01116 1-188 isoform P01116-2): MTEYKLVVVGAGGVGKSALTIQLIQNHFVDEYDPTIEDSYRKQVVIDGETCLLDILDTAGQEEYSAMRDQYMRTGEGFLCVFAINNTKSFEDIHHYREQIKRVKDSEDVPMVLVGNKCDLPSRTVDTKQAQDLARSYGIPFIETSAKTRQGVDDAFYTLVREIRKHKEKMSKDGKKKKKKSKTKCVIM
T1 sequence (P01116 1-188 isoform P01116-2 G12D): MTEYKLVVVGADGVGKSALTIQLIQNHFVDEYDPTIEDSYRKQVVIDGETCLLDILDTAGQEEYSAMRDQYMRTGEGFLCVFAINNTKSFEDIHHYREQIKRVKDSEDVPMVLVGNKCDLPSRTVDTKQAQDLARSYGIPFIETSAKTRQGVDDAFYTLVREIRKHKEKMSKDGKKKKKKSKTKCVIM
T4 sequence (P01116 1-188 isoform P01116-2 G12V): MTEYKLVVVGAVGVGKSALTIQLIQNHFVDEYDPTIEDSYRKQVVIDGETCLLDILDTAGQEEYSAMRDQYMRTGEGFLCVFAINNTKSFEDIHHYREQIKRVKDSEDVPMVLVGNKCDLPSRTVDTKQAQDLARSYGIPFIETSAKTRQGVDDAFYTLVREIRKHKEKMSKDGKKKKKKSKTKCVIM
T5 sequence (P01116 1-188 isoform P01116-2 G12S): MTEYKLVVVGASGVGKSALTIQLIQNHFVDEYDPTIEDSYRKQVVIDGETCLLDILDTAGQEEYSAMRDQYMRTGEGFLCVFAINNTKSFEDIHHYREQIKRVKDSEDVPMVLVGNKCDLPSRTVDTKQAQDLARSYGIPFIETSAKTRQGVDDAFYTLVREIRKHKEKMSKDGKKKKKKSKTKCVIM

With `CC1CN(c2nc(OCC34CCCN3CCC4)nc3c(F)c(-c4cc(O)cc5ccccc45)ncc23)CCO1` (stereo not shown) [Example 6, 4-[8-fluoro-2-(1,2,3,5,6,7-hexahydropyrrolizin-8-ylmethoxy)-4-(2-methylmorpholin-4-yl)pyrido[4,3-d]pyrimidin-7-yl]naphthalen-2-ol], the IC50 on KRAS G12D, on KRAS WT, against KRAS G12C and on KRAS G12V was 0.1 to 10 µM throughout.

As to `Oc1cc(-c2ncc3c(N4CC5CCC(C4)O5)nc(OCC45CCCN4CCC5)nc3c2F)c2ccccc2c1` [Example 7, 4-[8-fluoro-2-(1,2,3,5,6,7-hexahydropyrrolizin-8-ylmethoxy)-4-(8-oxa-3-azabicyclo[3.2.1]octan-3-yl)pyrido[4,3-d]pyrimidin-7-yl]naphthalen-2-ol], the IC50 on KRAS G12D, against KRAS WT, against KRAS G12C and on KRAS G12V was 0.1 to 10 µM each time.

For the compound `COCCCNc1nc(OCC23CCCN2CCC3)nc2c(F)c(-c3cc(O)cc4ccccc34)ncc12` [Example 11, 4-[8-fluoro-2-(1,2,3,5,6,7-hexahydropyrrolizin-8-ylmethoxy)-4-(3-methoxypropylamino)pyrido[4,3-d]pyrimidin-7-yl]naphthalen-2-ol], the IC50 at KRAS G12D lay in the range of 0.01 to 0.1 µM; on KRAS WT, 0.1 to 10 µM; at KRAS G12C, 0.1 to 10 µM; against KRAS G12V, 0.1 to 10 µM.

In the case of `CS(=O)(=O)CCCNc1nc(OCC23CCCN2CCC3)nc2c(F)c(-c3cc(O)cc4ccccc34)ncc12` [Example 46, 4-[8-fluoro-2-(1,2,3,5,6,7-hexahydropyrrolizin-8-ylmethoxy)-4-(3-methylsulfonylpropylamino)pyrido[4,3-d]pyrimidin-7-yl]naphthalen-2-ol], the IC50 on KRAS G12D, on KRAS WT and against KRAS G12S was 0.1 to 10 µM in each case.

For the compound `Oc1cc(-c2ncc3c(N4CCC5COCC5C4)nc(OCC45CCCN4CCC5)nc3c2F)c2ccccc2c1` (stereo not shown) [Example 51, 4-[4-(3,3a,4,6,7,7a-hexahydro-1H-furo[3,4-c]pyridin-5-yl)-8-fluoro-2-(1,2,3,5,6,7-hexahydropyrrolizin-8-ylmethoxy)pyrido [4,3-d]pyrimidin-7-yl]naphthalen-2-ol], the IC50 at KRAS G12D, against KRAS WT, at KRAS G12C and on KRAS G12V was 0.1 to 10 µM in each case.

In the case of `O=C1CCN(c2nc(OCC34CCCN3CCC4)nc3c(F)c(-c4cc(O)cc5ccccc45)ncc23)CCO1` [Example 72, 4-[8-fluoro-2-(1,2,3,5,6,7-hexahydropyrrolizin-8-ylmethoxy)-7-(3-hydroxy-1-naphthyl)pyrido[4,3-d]pyrimidin-4-yl]-1,4-oxazepan-7-one], the IC50 at KRAS G12D, against KRAS WT, on KRAS G12C and against KRAS G12V was 0.1 to 10 µM each time.

With `OCC1CCN(c2nc(OCC34CCCN3CCC4)nc3c(F)c(-c4cc(O)cc5ccccc45)ncc23)C1` (stereo not shown) [Example 73, 4-[8-fluoro-2-(1,2,3,5,6,7-hexahydropyrrolizin-8-ylmethoxy)-4-[3-(hydroxymethyl)pyrrolidin-1-yl]pyrido[4,3-d]pyrimidin-7-yl]naphthalen-2-ol], the IC50 on KRAS G12D, at KRAS WT, against KRAS G12C and against KRAS G12V was 0.1 to 10 µM each time.

Turning to `CC(C)(O)C1CCN(c2nc(OCC34CCCN3CCC4)nc3c(F)c(-c4cc(O)cc5ccccc45)ncc23)C1` (stereo not shown) [Example 74, 4-[8-fluoro-2-(1,2,3,5,6,7-hexahydropyrrolizin-8-ylmethoxy)-4-[3-(1-hydroxy-1-methyl-ethyl)pyrrolidin-1-yl]pyrido[4,3-d]pyrimidin-7-yl]naphthalen-2-ol], the IC50 at KRAS G12D is over 10 µM; against KRAS WT, 0.1 to 10 µM; at KRAS G12C (recombinant human KRAS G12C aa1-188, 4 nM, lowest class = % inhibition at 10 μM) it was over 10 µM; on KRAS G12V (recombinant human KRAS G12V aa1-188, 4 nM, lowest class = % inhibition at 10 μM), over 10 µM.

On to `CN1CCCN(c2nc(OCC34CCCN3CCC4)nc3c(F)c(-c4cc(O)cc5ccccc45)ncc23)CC1=O` [Example 75, 4-[8-fluoro-2-(1,2,3,5,6,7-hexahydropyrrolizin-8-ylmethoxy)-7-(3-hydroxy-1-naphthyl)pyrido[4,3-d]pyrimidin-4-yl]-1-methyl-1,4-diazepan-2-one], for which the IC50 on KRAS G12D, on KRAS WT, against KRAS G12C and on KRAS G12V was 0.1 to 10 µM each time.

On to `O=C1CC2(CCN(c3nc(OCC45CCCN4CCC5)nc4c(F)c(-c5cc(O)cc6ccccc56)ncc34)C2)CN1` (stereo not shown) [Example 76, 2-[8-fluoro-2-(1,2,3,5,6,7-hexahydropyrrolizin-8-ylmethoxy)-7-(3-hydroxy-1-naphthyl)pyrido[4,3-d]pyrimidin-4-yl]-2,7-diazaspiro[4.4] nonan-8-one], for which the IC50 at KRAS G12D is over 10 µM; against KRAS WT it was 0.1 to 10 µM; on KRAS G12C, 0.1 to 10 µM; against KRAS G12V it was 0.1 to 10 µM.

On to `O=C1NCCC12CCN(c1nc(OCC34CCCN3CCC4)nc3c(F)c(-c4cc(O)cc5ccccc45)ncc13)CC2` [Example 77, 8-[8-fluoro-2-(1,2,3,5,6,7-hexahydropyrrolizin-8-ylmethoxy)-7-(3-hydroxy-1-naphthyl)pyrido[4,3-d]pyrimidin-4-yl]-2,8-diazaspiro[4.5]decan-1-one], for which the 50% inhibitory concentration (IC50) on KRAS G12D, against KRAS WT, against KRAS G12C and against KRAS G12V was 0.1 to 10 µM each time.

Regarding `CN1CCN(c2nc(OCC34CCCN3CCC4)nc3c(F)c(-c4cc(O)cc5ccccc45)ncc23)CCC1=O` [Example 78, 1-[8-fluoro-2-(1,2,3,5,6,7-hexahydropyrrolizin-8-ylmethoxy)-7-(3-hydroxy-1-naphthyl)pyrido[4,3-d]pyrimidin-4-yl]-4-methyl-1,4-diazepan-5-one], the IC50 at KRAS G12D, on KRAS WT, on KRAS G12C and against KRAS G12V was 0.1 to 10 µM in each case.

In the case of `OCC1CCN(c2nc(OCC34CCCN3CCC4)nc3c(F)c(-c4cc(O)cc5ccccc45)ncc23)CC1` [Example 79, 4-[8-fluoro-2-(1,2,3,5,6,7-hexahydropyrrolizin-8-ylmethoxy)-4-[4-(hydroxymethyl)-1-piperidyl]pyrido[4,3-d]pyrimidin-7-yl]naphthalen-2-ol], the IC50 on KRAS G12D, at KRAS WT, against KRAS G12C and against KRAS G12V was 0.01 to 0.1 µM each time.

`O=C1CC2(CCN(c3nc(OCC45CCCN4CCC5)nc4c(F)c(-c5cc(O)cc6ccccc56)ncc34)CC2)CN1` [Example 81, 8-[8-fluoro-2-(1,2,3,5,6,7-hexahydropyrrolizin-8-ylmethoxy)-7-(3-hydroxy-1-naphthyl)pyrido[4,3-d]pyrimidin-4-yl]-2,8-diazaspiro[4.5]decan-3-one]: the IC50 is 0.1 to 10 µM on KRAS G12D, 0.1 to 10 µM on KRAS WT, 0.1 to 10 µM at KRAS G12C and 0.01 to 0.1 µM at KRAS G12V.

Take `O=C1NCc2ccc(Nc3nc(OCC45CCCN4CCC5)nc4c(F)c(-c5cc(O)cc6ccccc56)ncc34)cc21` [Example 82, 6-[[8-fluoro-2-(1,2,3,5,6,7-hexahydropyrrolizin-8-ylmethoxy)-7-(3-hydroxy-1-naphthyl)pyrido[4,3-d]pyrimidin-4-yl]amino]isoindolin-1-one]: the IC50 at KRAS G12D lay within 0.1 to 10 µM; at KRAS WT, 0.1 to 10 µM; at KRAS G12C it was 0.1 to 10 µM; on KRAS G12V it was 0.01 to 0.1 µM.

As to `Nc1cc2ccccc2c(-c2ncc3c(N4CCCOCC4)nc(OCC45CCCN4CCC5)nc3c2F)n1` [Example 91, 1-[8-fluoro-2-(1,2,3,5,6,7-hexahydropyrrolizin-8-ylmethoxy)-4-(1,4-oxazepan-4-yl)pyrido[4,3-d]pyrimidin-7-yl]isoquinolin-3-amine], the IC50 on KRAS G12D, against KRAS WT, on KRAS G12C and against KRAS G12V was 0.1 to 10 µM each time.

`CN(C)CC1(COc2nc(N3CCCOCC3)c3cnc(-c4cc(O)cc5ccccc45)c(F)c3n2)CC1` [Example 96, 4-[2-[[1-[(dimethylamino)methyl]cyclopropyl]methoxy]-8-fluoro-4-(1,4-oxazepan-4-yl)pyrido[4,3-d]pyrimidin-7-yl]naphthalen-2-ol]: the IC50 on KRAS G12D, against KRAS WT, against KRAS G12C and at KRAS G12V was 0.01 to 0.1 µM in each case.
